# In patent US20220213119A1, “THIENOHETEROCYCLIC DERIVATIVE, PREPARATION METHOD THEREFOR AND MEDICAL USE THEREOF” (Jiangsu Hengrui Medicine Ca, Lid., priority 2019, published 2022):
# Target: T1, ERK2 (Homo sapiens, UniProt P28482)
# T1 construct: purchased R&D 1230-KS-010
# Assay: ERK2 enzyme activity test (ADP-Glo Kinase Assay)
# Type: biochemical
# Conditions: chemiluminescence
# Method: The purpose of this experiment is to detect the inhibitory ability of the compounds on the ERK2 enzyme activity and evaluate the activity of the compounds in vitro according to IC50. The ADP-Glo™ Kinase Assay Kit was used in this experiment. Under the action of enzyme, the substrate was phosphorylated and ADP was produced at the same time. The ADP-Glo Reagent was added to remove unreacted ATP in the reaction system. The kinase detection reagent was used to detect the ADP produced by the reaction. In the presence of the compound, the inhibition rate of the compound was calculated by measuring the signal value.
# Enzyme and substrate preparation: ERK2 (1230-KS-010, R&D) and substrate (Custom peptides, Gill Biochemical) were prepared to be 0.75 ng/μl and 1500 μM in the buffer (40 mM Tris, 20 mM MgCl2, 0.1 mg/mL BSA, 50 μM DTT). The enzyme solution and substrate solution were then prepared into a mixed solution at a volume ratio of 2:1 for later use. ATP was diluted to 500 μM with the buffer. The compounds were dissolved in DMSO (dimethyl sulfoxide, Shanghai Titan Scientific Co., Ltd.) to prepare a stock solution with an initial concentration of 20 mM, and then Bravo was used to prepare solutions of the compounds. Finally, a 3 μL of a mixed solution of enzyme and substrate, and 1 μL of different concentrations of the compound (the initial concentration is 50 μM, 4-fold dilution) were added to each well of the 384-well plate, and the plate was incubated at 30° C. for 10 minutes, and finally 1 μL of 500 μM ATP solution was added to each well, and the plate was incubated at 30° C. for 2 hours. Then 5 μL of ADP-Glo was added, and the plate was incubated at 30° C. for 40 minutes. Then 10 μL of Kinase detection buffer was added, and the plate was incubated at 30° C. for 40 minutes. The 384-well plate was taken out and placed in a microplate reader (BMG labtech, PHERAstar FS), and the chemiluminescence was measured by the microplate reader.
# The data were processed and analyzed with Microsoft Excel, Graphpad Prism 5.
# T1 sequence (P28482 whole entry): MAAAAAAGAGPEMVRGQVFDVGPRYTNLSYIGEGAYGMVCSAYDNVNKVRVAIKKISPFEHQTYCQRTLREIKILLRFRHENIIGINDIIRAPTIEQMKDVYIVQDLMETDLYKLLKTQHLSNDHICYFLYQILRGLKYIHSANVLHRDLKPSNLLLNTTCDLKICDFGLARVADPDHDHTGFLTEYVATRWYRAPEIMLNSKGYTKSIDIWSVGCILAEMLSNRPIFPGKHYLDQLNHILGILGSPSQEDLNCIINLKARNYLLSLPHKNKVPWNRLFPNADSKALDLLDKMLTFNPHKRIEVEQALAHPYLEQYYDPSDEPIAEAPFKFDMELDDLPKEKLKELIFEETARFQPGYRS
row,IC50 [nM],SMILES
1,203,"Cc1cccc([C@@H](CO)NC(=O)[C@H](C)N2CCc3sc(-c4nc(NC5CCOCC5)ncc4Cl)cc3C2=O)c1 [Example 3-P1, (S)-2-(2-(5-Chloro-2-((tetrahydro-2H-pyran-4-yl)amino)pyrimidin-4-yl)-4-oxo-6,7-dihydrothieno[3,2-c]pyridin-5(4H)-yl)-N-((S)-2-hydroxy-1-(m-methylphenyl)ethyl)propionamide]"
2,434,"C[C@@H](C(=O)N[C@H](CO)c1cccc(Cl)c1)N1CCc2sc(-c3nc(NC4CCOCC4)ncc3Cl)cc2C1=O [Example 4-P1, (S)-2-(2-(5-Chloro-2-((tetrahydro-2H-pyran-4-yl)amino)pyrimidin-4-yl)-4-oxo-6,7-di hydrothieno[3,2-c]pyridin-5(4H)-yl)-N-((S)-1-(3-chlorophenyl)-2-hydroxyethyl)propionamide]"
3,410,"COc1cc(F)cc([C@@H](CO)NC(=O)[C@H](C)N2CCc3sc(-c4nc(NC5CCOCC5)ncc4Cl)cc3C2=O)c1 [Example 9-P1, (S)-2-(2-(5-Chloro-2-((tetrahydro-2H-pyran-4-yl)amino)pyrimidin-4-yl)-4-oxo-6,7-dihydrothieno[3,2-c]pyridin-5(4H)-yl)-N-((S)-1-(3-fluoro-5-methoxyphenyl)-2-hydroxyethyl)prop ionamide]"

# Further lines, the molecule ahead of its results:
row,SMILES,IC50 [nM]
1,"CC1(C)c2sc(-c3nc(NC4CCOCC4)ncc3Cl)cc2C(=O)N1CC(=O)N[C@H](CO)c1cccc(Cl)c1 [Example 2, (S)-2-(2-(5-Chloro-2-((tetrahydro-2H-pyran-4-yl)amino)pyrimidin-4-yl)-6,6-dimethyl-4-oxo-4,6-dihydro-5H-thieno[2,3-c]pyrrol-5-yl)-N-(1-(3-chlorophenyl)-2-hydroxyethyl)acetamide]",3
2,"CC(C(=O)N[C@H](CO)c1cccc(Cl)c1)N1C(=O)c2cc(-c3nc(NC4CCOCC4)ncc3Cl)sc2C1(C)C (stereo partly drawn) [Example 5, 2-(2-(5-Chloro-2-((tetrahydro-2H-pyran-4-yl)amino)pyrimidin-4-yl)-6,6-dimethyl-4-oxo-4,6-dihydro-5H-thieno[2,3-c]pyrrol-5-yl)-N-((S)-1-(3-chlorophenyl)-2-hydroxyethyl)propionamide]",22
3,"O=C(CN1CCc2sc(-c3ccnc(NC4CCOCC4)n3)cc2C1=O)N[C@H](CO)c1cccc(Cl)c1 [Example 6, (S)-N-(1-(3-Chlorophenyl)-2-hydroxyethyl)-2-(4-oxo-2-(2-((tetrahydro-2H-pyran-4-yl)amino)pyrimidin-4-yl)-6,7-dihydrothieno[3,2-c]pyridin-5(4H)-yl)acetamide]",29
